Source: patent EP0423133B1, “ENZYMATIC RESOLUTION SYSTEMS AND COMPOUNDS USEFUL IN THE SYSTEMS AND THEIR REPARATIONS” (priority 1988, dated 1989)
Values after ≈ are worked out from the molar mass of the structure shown. Counter-ions that a name gives are not always drawn. Like-named read-outs stand apart in the source and are kept apart here.

Experiments:
Protease XXIII = experiment: Homogeneous aqueous enzymatic resolution (ester hydrolysis) with enzyme A; assay type: biochemical, Aspergillus oryzae; conditions: for enantiomeric excess: pH 7.5, 100 mg Protease XXIII (A)
Procedure: The enzymes used in Examples 6.2.1.1-6.2.1.17, 6.2.1.20-6.2.1.21, 6.2.1.23-6.2.1.28, 6.2.2.7, and 6.2.3.1-6.2.3.5 that follow were all proteases commercially available from Sigma Chemical Co., St. Louis, MO. […] For examples 6.2.2.5-6.2.2.6, Candida lipase obtained from Genzyme Corporation was used.
No further purification was performed.
The aqueous layer was retained.

[1] = target: T1, Protease VIII: "Subtilopeptidase A" (Bacillus licheniformis, UniProt P00780); experiment: Homogeneous aqueous enzymatic resolution (ester hydrolysis) with enzyme B; assay type: biochemical; conditions: for % e.e.: acid product
T1 sequence (P00780 106-379): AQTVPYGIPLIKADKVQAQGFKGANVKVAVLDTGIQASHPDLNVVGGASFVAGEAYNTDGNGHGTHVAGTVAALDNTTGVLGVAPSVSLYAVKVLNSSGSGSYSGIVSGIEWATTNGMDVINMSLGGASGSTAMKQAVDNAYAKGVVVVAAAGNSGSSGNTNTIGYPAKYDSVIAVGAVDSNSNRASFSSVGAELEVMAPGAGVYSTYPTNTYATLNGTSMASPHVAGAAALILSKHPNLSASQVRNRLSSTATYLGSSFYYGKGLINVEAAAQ

[2] = target: T2, Protease XXVII: "Nagarse" (Bacillus amyloliquefaciens, UniProt P00782); experiment: Homogeneous aqueous enzymatic resolution (ester hydrolysis) with enzyme D; assay type: biochemical; conditions: 0.010 mol ester in 100 ml 0.2 M sodium phosphate buffer pH 7.8, 150 mg enzyme D
T2 sequence (P00782 108-382): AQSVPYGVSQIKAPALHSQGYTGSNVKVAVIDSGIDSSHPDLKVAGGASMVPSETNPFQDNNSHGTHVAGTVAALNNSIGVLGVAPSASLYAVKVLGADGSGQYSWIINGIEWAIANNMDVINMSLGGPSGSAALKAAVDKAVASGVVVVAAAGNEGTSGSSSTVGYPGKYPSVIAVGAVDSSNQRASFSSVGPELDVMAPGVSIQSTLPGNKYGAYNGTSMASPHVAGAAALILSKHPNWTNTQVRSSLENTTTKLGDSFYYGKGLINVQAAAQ
Source text: (§1) The enzymes used in Examples 6.2.1.1-6.2.1.17, 6.2.1.20-6.2.1.21, 6.2.1.23-6.2.1.28, 6.2.2.7, and 6.2.3.1-6.2.3.5 that follow were all proteases commercially available from Sigma Chemical Co., St. Louis, MO. These proteases are listed in each example using the Sigma numbering system, which is summarized below: • Protease VIII: "Subtilopeptidase A", product P-5380 (also known as subtilisin Carlsberg) • Protease XIV: from Streptomyces griseus, product P-5147 • Protease XVI: from Bacillus subtilis, product P-8775 • Protease XXIII: from Aspergillus oryzae, product P-4032 • Protease XXVII: "Nagarse", product P-4789 • Protease XXIV: bacterial protease, product P-8038 An additional protease enzyme, which was designated Prozyme 6, was obtained from the Amano Enzyme Corporation and used in Examples 6.2.1.18-6.2.19, 6.2.1.22, 6.2.1.29-6.2.1.30 and 6.2.2.1-6.2.2.4 described below. A pig liver esterase was used in Example 6.21.11; this enzyme, obtained from Sigma Chemical Company, was designated as their product E-3128. For examples 6.2.2.5-6.2.2.6, Candida lipase obtained from Genzyme Corporation was used. Finally, Candida lipase, product L-1754, obtained from Sigma Chemical Co. was used in Example 6.2.2.7.

[3] = Solubility by absorbance of saturated solutions at 262 nm; assay type: physicochemical
Protease XVI = experiment: Homogeneous aqueous enzymatic resolution (ester hydrolysis) with enzyme C; assay type: biochemical, Bacillus subtilis; conditions: 10.0 mmol ester in 100 ml 0.2 M phosphate buffer pH 7.0, 100 mg enzyme C, 20-22 °C, 20 hours; for % e.e.: acid product, R
Source text: as §1

Prozyme 6 = experiment: Homogeneous aqueous enzymatic resolution (ester hydrolysis) with enzyme F; assay type: biochemical, Aspergillus oryzae; conditions: for % CONVERSION / % e.e.: 10 mmol ester in 100 ml 0.2 M buffer pH 7.0, 100 mg Prozyme 6 (F), 25 °C, 18 hours; for % e.e.: acid product, R
[4] = tested on: Candida lipase (Genzyme Corporation); experiment: Asymmetric hydrolysis in a multiphase membrane bioreactor with enzyme G; assay type: biochemical, Candida cylindracea; conditions: neat liquid ester, pH 7.7
Source text: The module was then drained.
This material was recrystallized from hexane.

[5] = 10.0 mmol ester in 100 ml 0.2 M phosphate buffer pH 7.0, 100 mg enzyme A, 20-22 °C, 20 hours
[6] = acid product, R, 10.0 mmol ester in 100 ml 0.2 M phosphate buffer pH 7.0, 100 mg enzyme A, 20-22 °C, 20 hours
[7] = aqueous buffer, saturated solutions, pH 7 (50 mM phosphate buffer), room temperature, read-out: Solubility

Question: For CC(C)Cc1ccc(C(C)C(=O)OCCS(=O)(=O)O)cc1 (racemic) [Compound 2, Sodium Salt of 2-Sulfoethyl Ester of 2-(4-Isobutylphenyl) propanoic Acid], which “% CONVERSION” value (Protease XXIII; [5]) is on record?
Answer: 22.3%

Question: What about the “% e.e.” value (Protease XXIII; [6]) of the same molecule?
Answer: 93.3%

Question: With CC(C)Cc1ccc(C(C)C(=O)OCCCS(=O)(=O)O)cc1 (racemic) [Compound 3, Potassium Salt of 3-Sulfopropyl Ester of 2-(4-Isobutylphenyl) propanoic Acid] as the molecule, how does the “% CONVERSION” value ([1]; 0.010 mol ester in 100 ml 0.2 M sodium phosphate buffer pH 7.8, 150 mg enzyme B) read?
Answer: 36.4%

Question: What about the “% e.e.” value ([1]; R, 0.010 mol ester in 100 ml 0.2 M sodium phosphate buffer pH 7.8, 150 mg enzyme B) of the same molecule?
Answer: 98.6%

Question: And the “% CONVERSION” value [2]?
Answer: 32.0%

Question: What about the “% e.e.” value ([2]; acid product, R) of the same molecule?
Answer: 91.0%

Question: And the “% CONVERSION” value (Protease XXIII; [5])?
Answer: 50.0%

Question: And the “% CONVERSION” value (Protease XXIII; 0.010 mol ester in 100 ml 0.2 M sodium phosphate buffer pH 7.8, 150 mg enzyme A)?
Answer: 47.1%

Question: And the “conversion of the racemic ester to acid” value (Protease XXIII; about 1 M ester, 40 ml, 0.1 M potassium phosphate pH 7.0, 1.00 gm protease (A), 23.9 hours at room temperature, by hydroxide titration)?
Answer: 29%

Question: What about the “% e.e.” value (Protease XXIII; [6]) of the same molecule?
Answer: 84.2%

Question: What about the “% e.e.” value (Protease XXIII; acid product, R, 0.010 mol ester in 100 ml 0.2 M sodium phosphate buffer pH 7.8, 150 mg enzyme A) of the same molecule?
Answer: 97.7%

Question: What does the source list for CC(C)Cc1ccc(C(C)C(=O)OCCCCS(=O)(=O)O)cc1 (racemic) [Compound 4, Potassium Salt of 4-Sulfobutyl Ester of 2-(4-Isobutylphenyl) propanoic Acid]?
Answer: % CONVERSION ([1]; 10.0 mmol ester in 100 ml 0.2 M phosphate buffer pH 7.0, 100 mg enzyme B, 20-22 °C, 20 hours): 20.0%; % e.e. ([1]; R, 10.0 mmol ester in 100 ml 0.2 M phosphate buffer pH 7.0, 100 mg enzyme B, 20-22 °C, 20 hours): 92.1%; solubility [3, 7]: 1130 mM; % CONVERSION (Protease XXIII; [5]): 43.2%; % e.e. (Protease XXIII; [6]): 97.4%; % CONVERSION (Protease XVI): 22.0%; % e.e. (Protease XVI): 61.7%

Question: Which “% CONVERSION” value (Protease XVI) does the source give for CC(C)Cc1ccc(C(C)C(=O)OCCOP(=O)(O)O)cc1 (racemic) [Compound 5, Disodium Salt of the Phosphoric Acid Ester of the 2-Hydroxyethyl Ester of 2-(4-Isobutylphenyl) propanoic Acid] here?
Answer: 5.3%

Question: What about the “% e.e.” value (Protease XVI) of the same molecule?
Answer: 75.6%

Question: With CC(C)Cc1ccc(C(C)C(=O)OCCCOS(=O)(=O)O)cc1 (racemic) [Compound 6, Potassium Salt of the Sulfuric Acid Ester of 3-Hydroxypropyl Ester of 2-(4-Isobutylphenyl) propanoic Acid] as the molecule, how does the “% CONVERSION” value (Protease XXIII; [5]) read?
Answer: 24.3%

Question: And the “% e.e.” value (Protease XXIII; [6])?
Answer: 96.5%

Question: Which results are given for COc1ccc2cc(C(C)C(=O)OCS(=O)(=O)O)ccc2c1 (racemic) [Compound 9, Sodium Salt of Sulfomethyl Ester of 2-(6-Methoxy-2-naphthyl) propanoic Acid]?
Answer: conversion (enzymatic hydrolysis) (Protease XXIII; 2.0 gm ester in 400 ml 50 mM sodium phosphate buffer pH 7.5, 100 mg Protease XXIII (A), 25 degrees, 16 hours): 18%; enantiomeric excess (Protease XXIII; R isomer of naproxen, acid product, 16 hours): 61.2%; enantiomeric excess (Protease XXIII; S isomer of Naproxen from chemical hydrolysis (pH 12) of the unconverted ester, 16 hours): 45.5%

Question: With CC(C)Cc1ccc(C(C)C(=O)OCC[N+](C)(C)C)cc1 (racemic) [Compound 10, Iodide Salt of 2-(N,N,N-Trimethylammonium)ethyl Ester of 2-(4-Isobutylphenyl) propanoic Acid] as the molecule, how does the solubility [3, 7] read?
Answer: 2180 mM

Question: And the “% CONVERSION” value (Protease XXIII; [5])?
Answer: 30.1%

Question: And the “% e.e.” value (Protease XXIII; [6])?
Answer: >99%

Question: For COc1ccc2cc(C(C)C(=O)OCC[N+](C)(C)C)ccc2c1 (racemic) [Compound 11, Methyl Sulfate Salt of 2-(N,N,N-Trimethylammonium) ethyl Ester of 2-(6-Methoxy-2-naphthyl)propanoic Acid], which “% CONVERSION” value (Prozyme 6) is on record?
Answer: 24.3%

Question: What about the “% e.e.” value (Prozyme 6) of the same molecule?
Answer: 34.0%

Question: What does the source list for COc1ccc2cc(C(C)C(=O)OCCC[N+](C)(C)C)ccc2c1 (racemic) [Compound 12, Methyl Sulfate Salt of 3-(N,N,N-Trimethylammonium) propyl Ester of 2-(6-Methoxy-2-naphthyl)propanoic Acid]?
Answer: solubility [3, 7]: 1610 mM; % CONVERSION (Prozyme 6): 34.0%; % e.e. (Prozyme 6): 21.6%

Question: For CC(Cl)C(=O)OCCCS(=O)(=O)O (racemic) [Compound 13, Potassium Salt of 3-Sulfopropyl Ester of 2-Chloropropanoic Acid], which “conversion as measured by titrimetry” value ([1]; 8.05 gm ester in 300 ml 0.1 M potassium phosphate buffer pH 7.0, 20 mg subtilisin protease (B), point at which the reaction was stopped) is on record?
Answer: 25%

Question: With CC(CSC(=O)c1ccccc1)C(=O)OCS(=O)(=O)O (racemic) [Compound 16, Potassium Salt of the Sulfomethyl Ester of (±)-S-3-Benzoylthio-2-methylpropanoic Acid] as the molecule, how does the “% CONVERSION” value ([1]; 10.0 mmol ester in 100 ml 0.2 M buffer pH 7.0, 100 mg enzyme B, 25 °C, 18 hours) read?
Answer: 26%

Question: And the “% e.e.” value ([1]; S, 10.0 mmol ester in 100 ml 0.2 M buffer pH 7.0, 100 mg enzyme B, 25 °C, 18 hours)?
Answer: 10%

Question: What about the “% CONVERSION” value (Protease XXIII; 10.0 mmol ester in 100 ml 0.2 M buffer pH 7.0, 100 mg enzyme A, 25 °C, 18 hours) of the same molecule?
Answer: 53%

Question: And the “% e.e.” value (Protease XXIII; acid product, S, 10.0 mmol ester in 100 ml 0.2 M buffer pH 7.0, 100 mg enzyme A, 25 °C, 18 hours)?
Answer: 3%

Question: With CC(Oc1ccc(Cl)cc1)C(=O)OCS(=O)(=O)O (racemic) [Compound 17, Sodium Salt of the Sulfomethyl Ester of 2-(4-Chlorophenoxy) propanoic Acid] as the molecule, how does the completion of reaction (Prozyme 6; 10 mmol ester in 100 ml 0.2 M sodium phosphate buffer pH 7.0, 35 mg Enzyme F, 30 °C, 1 hour) read?
Answer: 22.5%

Question: Which average hydrolytic rate ([4]; first 60 minutes, 3.0 grams Candida lipase in membrane) does the source give for CC(C)Cc1ccc(C(C)C(=O)OCC(F)(F)F)cc1 (racemic) [Compound 19, 2,2,2-Trifluoroethyl Ester of 2-(4-Isobutylphenyl)propanoic Acid] here?
Answer: 160 amol/min

Question: And the average hydrolysis rate ([4]; over the next 76 hours, by titrimetry)?
Answer: 21 µmol/min

Question: And the conversion to acid ([4]; over the next 76 hours)?
Answer: about 9.8%

Question: And the solubility [3, 7]?
Answer: 0.4 mM (≈ 115 µg/mL)

Question: What about the solubility ([3]; water, as stated in the text of the examples, read-out: water solubility) of the same molecule?
Answer: ~0.4 mM (≈ 115 µg/mL)

Question: With CC(C)Cc1ccc(C(C)C(=O)OCCN(C)C)cc1 (stereo not shown) [2-(N,N-dimethylamino)ethyl ester of ibuprofen] as the molecule, how does the solubility [3, 7] read?
Answer: 10 mM (≈ 2770 µg/mL)

Question: With COCCOC(=O)C(C)c1ccc(CC(C)C)cc1 (stereo not shown) [Methoxyethyl ester of ibuprofen] as the molecule, how does the solubility [3, 7] read?
Answer: 0.18 mM (≈ 47.6 µg/mL)
